# Marks after values point to notes of the source that are not given here.
# Legend:
# rabbit ejaculated sperm = assay: Direct effect on sperm motility, rabbit ejaculated sperm; format: cell-based; conditions: for Motility (%) at 60 Minutes: rabbit ejaculate diluted 1:10, 34° C., control 76.6
# Experimental: (§1) Method for Determining Direct Effect of an Agent on Sperm Motility The direct effect of an agent on sperm motility was determined by using the following protocols. Basically, sperm are obtained either from the cauda epididymis, as in the case of the rat, or ejaculated sperm collected using an artificial vagina, as in the rabbit. The initial motility of the sperm is determined manually or by using a Hamilton Thorn IVOS sperm analyzer. The sperm are then kept at a constant temperature of 34° C., diluted to a consistent concentration of 10×10^6/ml, and added to about 3 ml of buffer or media. The motility is determined again at this point and any change is recorded. Different concentrations of the agent to be tested are then added to the sperm preparation. The sperm samples are then held at the same temperature for one hour and the motility is determined. The results are recorded as the percent of motile sperm in the sample. The Sperm were kept at 34° C. throughout the experimental period. Sperm concentration was be approximately 10×10^6/ml (note, the sample may have had to be diluted with buffer or media to reach this concentration). For the Rabbit Studies: (Using Ejaculated Sperm) A 1 mM stock of the indenopyridine in M-199 media with BSA (2.5 mg in 5=0.5 ug/ul; 0.5 ug/ml=1 uM) was prepared and added as follows: 1 uM=1 ul stock+949 ul M-199 media with BSA+50 ul of the diluted sperm 3 uM=3 ul stock+947 ul M-199 media with BSA+50 ul of the diluted sperm 10 uM=10 ul stock+940 ul M-199 media with BSA+50 ul of the diluted sperm 30 uM=30 ul stock+920 ul M-199 media with BSA+50 ul of the diluted sperm 100 uM=100 ul stock+850 ul M-199 media with BSA+50 ul of the diluted sperm 300 uM=300 ul stock+650 ul M-199 media with BSA+50 ul of the diluted sperm 1000 uM=1000 ul stock+50 ul of the diluted sperm Sperm motility was determined after 1 hour. Slides were made to determine morphology changes and eosin was added to determine cell death.
# Candida albicans = assay: Antifungal susceptibility testing (NCCLS, MIC/MFC) against C. albicans; format: cell-based; parameters: Lowest [Active]: unit not given here; conditions: for CFU for MFC at 100 / CFU for MFC at 200 / CFU for MFC at 300 / Lowest [Active]: C. albicans (19 hours); for CFU for MFC at 100: concentration 100; for CFU for MFC at 200: concentration 200; for CFU for MFC at 300: concentration 300; for Lowest [Active]: concentrations 300, 200, 100, unit not given, N/A = no active concentration; for Lowest MIC / Lowest MFC: C. albicans; for Lowest MIC: lowest concentration that appears to have no growth; for Lowest MFC: lowest concentration that kills >= 98% of the cells in the well
# Experimental: (§2) Antifungal susceptibility testing was performed following the NCCLS guidelines with minor modifications. Briefly, a suspension of Candida albicans cells was prepared from pure cultures grown overnight on yeast-malt extract (YM) agar at 35° C. Several small colonies were removed from a YM agar plate and transferred to 5 ml of 0.85% saline. The cells were suspended by 15 seconds of vortexing and the cell density of the resulting suspension was determined using a spectrophotometer. The cell density was adjusted by addition of 0.85% saline until the transmittance matched that of a 0.5 McFarland standard when measured at a wavelength of 530 nm. An aliquot of this suspension was diluted 1:1000 in RPMI-MOPS to yield a working suspension. A similar suspension of Aspergillus fumigatus spores was obtained by using spores stored at […] in 0.85% saline. These spores were diluted in 0.85% saline to match the McFarland standard transmittance. This suspension was then further diluted 1:50 in RPMI-MOPS to produce the working inoculum suspension.
# (§3) Dilution series of the test compounds were made in RPMI-MOPS containing 2% DMSO. An aliquot of each dilution was added in duplicate to the wells of a sterile 96-well, flat bottom microtiter plate. Then, an aliquot of either the C. albicans cell suspension or the A. fumigatus spore suspension were added to each well for a final volume of 200 μl. The plates were then incubated at […]. […] A similar determination was made for the A. fumigatus plates after 48 hours. […] The numbers of colony forming units (CFU) were counted and these values used to calculate the percent survival of cells or spores in inocula relative to the number of CFUs in the working inoculum suspension. The minimum fungicidal concentration (MFC) was the lowest concentration of test compound with a percent survival of less than 2%.
# Aspergillus fumigatus = assay: Antifungal susceptibility testing (NCCLS, MIC/MFC) against A. fumigatus; format: cell-based; parameters: Lowest [Active]: unit not given here; conditions: for CFU for MFC at 100 / CFU for MFC at 200 / CFU for MFC at 300 / Lowest [Active]: A. fumigatus (48 hours); for CFU for MFC at 100: concentration 100; for CFU for MFC at 200: concentration 200; for CFU for MFC at 300: concentration 300; for Lowest [Active]: concentrations 300, 200, 100, unit not given, N/A = no active concentration; for Lowest MIC / Lowest MFC: A. fumigatus; for Lowest MIC: lowest concentration that appears to have no growth; for Lowest MFC: lowest concentration that kills >= 98% of the cells in the well
# Experimental: as §2, §3
# rat cauda sperm = assay: Direct effect on sperm motility, rat cauda epididymis sperm; format: cell-based; conditions: control: progressive motility
# Experimental: as §1, with “the Rat” for “the Rabbit”, “(Using Sperm from the Cauda Epididymis)” for “(Using Ejaculated Sperm)”, “in HBSS buffer+BSA (5” for “in M-199 media with BSA (2.5”, “in 10=0.5” for “in 5=0.5”, “ul HBSS buffer+BSA+50” for “ul M-199 media with BSA+50”, “Sperm Motility” for “Sperm motility”
smiles,measurement,setting,value
CCN1CCC2C(C1)c1cc(I)c(C)cc1C2c1ccc(C(=O)OC)cc1.Cl (stereo not drawn) [Compound 4587-073l],Motility (%) at 60 Minutes,rabbit ejaculated sperm; +1 μM,73.0%
same,Motility (%) at 60 Minutes,rabbit ejaculated sperm; +3 μM,68.4%
same,Motility (%) at 60 Minutes,rabbit ejaculated sperm; +10 μM,67.6%
same,Motility (%) at 60 Minutes,rabbit ejaculated sperm; +30 μM,61.9%
same,Motility (%) at 60 Minutes,rabbit ejaculated sperm; +100 μM,15.2 * %
same,Motility (%) at 60 Minutes,rabbit ejaculated sperm; +300 μM,0%
same,Motility (%) at 60 Minutes,rabbit ejaculated sperm; +1000 μM,0 ** %
same,Quality of motility (footnote *),"rabbit ejaculated sperm; rabbit sperm, +100 μM, 60 minutes",* Motility not progressive - twitching
same,Sperm appearance,"rabbit ejaculated sperm; rabbit sperm, +1000 μM, 60 minutes",** Sperm appeared to be “disintegrating”- sperm heads contain many vacuoles and membranes are not always intact
same,CFU for MFC at 100,Candida albicans,Cidal (Cidal = >98% killed)
same,CFU for MFC at 200,Candida albicans,Cidal (Cidal = >98% killed)
same,CFU for MFC at 300,Candida albicans,Cidal (Cidal = >98% killed)
same,Lowest [Active],Candida albicans,100
same,CFU for MFC at 100,Aspergillus fumigatus,Cidal (Cidal = >98% killed)
same,CFU for MFC at 200,Aspergillus fumigatus,Cidal (Cidal = >98% killed)
same,CFU for MFC at 300,Aspergillus fumigatus,Cidal (Cidal = >98% killed)
same,Lowest [Active],Aspergillus fumigatus,100
same,Motility (%) at 60 Minutes (in words),rat cauda sperm; +1 μM,Progressive motility-equal to control
same,Motility (%) at 60 Minutes (in words),rat cauda sperm; +3 μM,Progressive motility diminished
same,Motility (%) at 60 Minutes (in words),rat cauda sperm; +10 μM,No progressive motility - twitching
same,Motility (%) at 60 Minutes (in words),rat cauda sperm; +30 μM,Same as for 10 μM
same,Motility (%) at 60 Minutes (in words),rat cauda sperm; +100 μM,Death
CCN1CC[C@@H]2[C@@H](c3ccc(C(=O)OC)cc3)c3cc(C)ccc3[C@@H]2C1.Cl (racemic),melting point,,204 °C
"C[C@@H]1[C@H](O)[C@@H](C)/C=C/C=C/C=C/C=C/C=C/C=C/C=C/[C@H](O[C@@H]2O[C@H](C)[C@@H](O)[C@H](N)[C@@H]2O)C[C@@H]2O[C@](O)(C[C@@H](O)C[C@@H](O)[C@H](O)CC[C@@H](O)C[C@@H](O)CC(=O)O[C@H]1C)C[C@H](O)[C@H]2C(=O)O [AMP B, reference compound]",Lowest MIC,Candida albicans,0.5 µg/mL
same,Lowest MIC,Aspergillus fumigatus,2 µg/mL
CCN1CCC2C(C1)c1ccc(C)cc1C2c1ccc(C(=O)OC)cc1.Cl (stereo not drawn) [Compound 4587-056l],CFU for MFC at 200,Candida albicans,Cidal (Cidal = >98% killed)
same,CFU for MFC at 300,Candida albicans,Cidal (Cidal = >98% killed)
same,Lowest [Active],Candida albicans,200
same,CFU for MFC at 100,Aspergillus fumigatus,Cidal (Cidal = >98% killed)
same,CFU for MFC at 200,Aspergillus fumigatus,Cidal (Cidal = >98% killed)
same,CFU for MFC at 300,Aspergillus fumigatus,Cidal (Cidal = >98% killed)
same,Lowest [Active],Aspergillus fumigatus,100
CCN1CCC2=C(c3ccc(OC)cc3)c3cc(C)ccc3C2C1.Cl (stereo not drawn) [Compound 4587-082],Lowest MIC,Candida albicans,>100 µg/mL
same,Lowest MIC,Aspergillus fumigatus,100 µg/mL
same,Lowest MFC,Aspergillus fumigatus,100 µg/mL
CCCOC(=O)c1ccc(C2c3cc(C)ccc3C3CN(CC)CCC32)cc1.Cl (racemic) [Compound 4587-062],Lowest MIC,Candida albicans,20 µg/mL
same,Lowest MFC,Candida albicans,20 µg/mL
same,Lowest MIC,Aspergillus fumigatus,10 µg/mL
same,Lowest MFC,Aspergillus fumigatus,10 µg/mL
CCc1ccc2c(c1)[C@@H](c1ccc(C(=O)OC)cc1)[C@@H]1CCN(CC)C[C@H]21.Cl (racemic) [Compound 4587-064],CFU for MFC at 100,Candida albicans,"Static (Static = well looked clear, but <98% killed)"
same,CFU for MFC at 200,Candida albicans,Cidal (Cidal = >98% killed)
same,CFU for MFC at 300,Candida albicans,Cidal (Cidal = >98% killed)
same,Lowest [Active],Candida albicans,100
same,Lowest MIC,Candida albicans,100 µg/mL
same,Lowest MFC,Candida albicans,100 µg/mL
same,CFU for MFC at 100,Aspergillus fumigatus,Cidal (Cidal = >98% killed)
same,CFU for MFC at 200,Aspergillus fumigatus,Cidal (Cidal = >98% killed)
same,CFU for MFC at 300,Aspergillus fumigatus,Cidal (Cidal = >98% killed)
same,Lowest [Active],Aspergillus fumigatus,100
same,Lowest MIC,Aspergillus fumigatus,50 µg/mL
same,Lowest MFC,Aspergillus fumigatus,75 µg/mL

# Source: patent US8193213B2, “Spermicidal and/or antifungal composition and methods of using the same” (priority 2003, dated 2012)
